Measurements reported in patent publication US8518883B2, “Method of reducing deleterious effects of ischemia by administration of a thrombopoietin receptor ligand” (MCW Research Foundation, Inc., priority 2006, dated 2013).
Entries after “also recorded” stand apart in the source; their conditions may differ.

What was measured:
in vitro rat hearts [1] = experiment: Isolated perfused (Langendorff) rat heart, 25 min global ischemia and 180 min reperfusion: hemodynamics, infarct size, recovery of LVDP
Experimental: The study was directed to determining whether Tpo (0.01-10.0 ng/ml) confers immediate cardioprotection in rat hearts and the contribution of potassium channels to the underlying mechanism. Hearts from normoxic 8 week old Sprague Dawley rats (n=8/group) were isolated and perfused in the Langendorff mode. Hemodynamic function was recorded under steady-state conditions prior to 25 minutes global no flow ischemia and 180 minutes reperfusion.
Isolated heart perfusion. Isolated rat hearts were perfused with bicarbonate buffer at constant pressure in a retrograde manner and instrumented as described in Baker, et al., Am. J. Physiol. Heart Circulat. Physiol. 278:1395-1400, 2000 potassium channel blockers were added to this perfusate as needed. A 3-way tap, located immediately above the site of cannulation, allowed the entire perfusate to be diverted away from the heart to produce global, no-flow ischemia. Reperfusion was achieved by repositioning of the tap to allow perfusate to be delivered to the heart. Left ventricular function was monitored continuously throughout each experiment as described in Baker, et al., supra, 2000. End-diastolic pressure was initially set to 3 mmHg for 2 minutes. The balloon was then progressively inflated with a microsyringe to set end-diastolic pressures to 8 mmHg for the left ventricle, with developed pressure and heart rate recorded during steady-state conditions. Coronary flow rate was measured throughout the experiment by timed collections of the coronary effluent from the right side of the heart into a graduated cylinder. Coronary flow rate was expressed as milliliters per minute per gram wet weight.
Resistance to myocardial ischemia. Hearts from adult rats were perfused with bicarbonate buffer, and biventricular function was monitored continuously throughout each experiment as described in Baker, et al., supra, 2000. For concentration response studies, hearts were then perfused with Tpo (0.01-10.0 ng/ml) for 15 minutes prior to 25 minutes ischemia and 180 minutes reperfusion. For mechanism studies with potassium channel blockers, hearts were perfused with drugs for 15 minutes alone followed by 15 minutes in combination with Tpo prior to ischemia. Hearts perfused with potassium channel blockers alone in the absence of Tpo for 30 minutes prior to ischemia served as untreated controls for these studies. Recovery of post-ischemic left ventricular developed pressure was expressed as a percentage of its pre-drug, pre-ischemic value.
Assessment of ventricular function. Left ventricular function was monitored continuously throughout each experiment as described in Baker, et al., supra, 2000. Recovery of left ventricular pressure following ischemia was used to assess resistance to ischemia.
Measurement of infarct size/area at risk at 3 hours reperfusion were used to assess resistance to myocardial ischemia. For characterization of infarction size, hearts were perfused with 10 ml bicarbonate buffer containing triphenyltetrazolium chloride (SIGMA) at 37° C.
The heart was sectioned in 2 mm segments from apex to atrio-ventricular groove in a transverse fashion. Each segment was recorded and placed in formalin. After twenty-four (24) hours, the specimen was digitally photographed in a camera mount to normalize specimen-to-lens distance. Each photograph was then appended to Adobe Photoshop (Adobe™) to measure pixel density of infarcted versus non-infarcted areas. The percentage of infarction of each slide was expressed as a percentage of the entire area of the heart.
Hearts from male Sprague Dawley rats at 8 weeks of age were isolated and perfused with Tpo at 0.01, 0.1, 1.0, and 10 ng/ml for 15 minutes prior to 25 minutes global ischemia and 180 minutes reperfusion (FIG. 2). Tpo (1.0 ng/ml) reduced coronary flow rate prior to ischemia from 6±1 ml/min/g to 5±1 ml/min/g, increased left ventricular developed pressure from 119±15 mmHg to 151±19 mmHg and decreased heart rate from 240±34 beats/minute to 228±17 beats/minute. […]

in vitro rat hearts [2] = experiment: TUNEL assay of apoptosis in isolated rat hearts after global ischemia/reperfusion
Experimental: Hearts from Sprague Dawley rats perfused continuously with bicarbonate buffer for 245 minutes served as non-ischemic controls (FIG. 5). Hearts aerobically perfused for 35 minutes and subjected to 25 minutes of global ischemia followed by 3 hours reperfusion served as the ischemia-reperfusion control group. Hearts aerobically perfused with buffer for 20 minutes and then perfused with Tpo (1 ng/ml) for 15 minutes before ischemia and reperfusion served as a Tpo-treated group. Each heart at the end of perfusion was snap frozen in liquid nitrogen. Four frozen sections (10 micron thick) from each heart (72 sections total) were processed for TUNEL assay according to the manufacturers protocol (Roche). The slides were examined under fluorescent microscope (400× magnification, excitation 490 nm, and emission 515 nm). Twenty-two random high-power fields from each heart sample were chosen and blindly quantified. TUNEL results are presented as % (positive nuclei per field/total nuclei per field×100%).

rats = experiment: Platelet count and hematocrit after single Tpo treatment; assay type: in vivo, rat
Experimental: Prior to treatment, platelet counts in untreated rats were 850±96 10^3/ul, and the hematocrit in untreated rats was 43.8±1.8%.
FIG. 13A/B is a plot of additional data (mean±standard deviation, n+6 per group) that evaluated a single dose of Tpo (1.0 μg/kg i.v.) on platelet count and hematocrit. There was no effect.

[3] = system: healthy individuals and those about to receive chemotherapy; conditions: human trials, Tpo doses of 1-5 μg/kg; cited from earlier work
[4] = POST DRUG, Tpo 0.01 ng/ml for 15 min
[5] = POST DRUG, Tpo 0.1 ng/ml for 15 min
[6] = POST DRUG, Tpo 1.0 ng/ml for 15 min
[7] = POST DRUG, Tpo 10.0 ng/ml for 15 min
[8] = REPERFUSION, Tpo 0.01 ng/ml, 25 min global ischemia, 180 min reperfusion
[9] = REPERFUSION, Tpo 0.1 ng/ml, 25 min global ischemia, 180 min reperfusion
[10] = REPERFUSION, Tpo 1.0 ng/ml, 25 min global ischemia, 180 min reperfusion
[11] = REPERFUSION, Tpo 10.0 ng/ml, 25 min global ischemia, 180 min reperfusion
[12] = Tpo 0.01-10.0 ng/ml for 15 min prior to 25 min global ischemia, 180 min reperfusion
[13] = single Tpo 0.05 μg/kg i.v., 14 day follow up
[14] = single Tpo 1.0 μg/kg i.v., 28 day follow up

Thrombopoietin [Tpo]
Infarct size following ischemia and reperfusion (in vitro rat hearts [1]; 'U' shaped concentration-dependent, Tpo 0.01-10.0 ng/ml): reduced
Coronary flow rate (in vitro rat hearts [1]; [4]): 5 ± 1 mL/min/g
Heart rate (in vitro rat hearts [1]; [4]): 202 ± 16 beats/min
Left ventricle developed pressure (in vitro rat hearts [1]; [4]): 156 ± 13 mmHg
Coronary flow rate (in vitro rat hearts [1]; [5]): 5 ± 1 mL/min/g
Heart rate (in vitro rat hearts [1]; [5]): 233 ± 12 beats/min
Left ventricle developed pressure (in vitro rat hearts [1]; [5]): 158 ± 13 mmHg
Coronary flow rate (in vitro rat hearts [1]; [6]): 5 ± 1 mL/min/g
Heart rate (in vitro rat hearts [1]; [6]): 228±17 beats/min
Left ventricle developed pressure (in vitro rat hearts [1]; [6]): 151±19 mmHg
Coronary flow rate (in vitro rat hearts [1]; [7]): 6 ± 1 mL/min/g
Heart rate (in vitro rat hearts [1]; [7]): 220 ± 10 beats/min
Left ventricle developed pressure (in vitro rat hearts [1]; [7]): 172 ± 26 mmHg
Coronary flow rate (in vitro rat hearts [1]; PRE DRUG, Tpo 0.01 ng/ml group): 6 ± 1 mL/min/g
Heart rate (in vitro rat hearts [1]; PRE DRUG, Tpo 0.01 ng/ml group): 225 ± 31 beats/min
Left ventricle developed pressure (in vitro rat hearts [1]; PRE DRUG, Tpo 0.01 ng/ml group): 130 ± 13 mmHg
Coronary flow rate (in vitro rat hearts [1]; PRE DRUG, Tpo 0.1 ng/ml group): 5 ± 1 mL/min/g
Heart rate (in vitro rat hearts [1]; PRE DRUG, Tpo 0.1 ng/ml group): 228 ± 17 beats/min
Left ventricle developed pressure (in vitro rat hearts [1]; PRE DRUG, Tpo 0.1 ng/ml group): 120 ± 15 mmHg
Coronary flow rate (in vitro rat hearts [1]; PRE DRUG, Tpo 1.0 ng/ml group): 6 ± 1 mL/min/g
Heart rate (in vitro rat hearts [1]; PRE DRUG, Tpo 1.0 ng/ml group): 240±34 beats/min
Left ventricle developed pressure (in vitro rat hearts [1]; PRE DRUG, Tpo 1.0 ng/ml group): 119±15 mmHg
Coronary flow rate (in vitro rat hearts [1]; PRE DRUG, Tpo 10.0 ng/ml group): 6 ± 1 mL/min/g
Heart rate (in vitro rat hearts [1]; PRE DRUG, Tpo 10.0 ng/ml group): 226 ± 29 beats/min
Left ventricle developed pressure (in vitro rat hearts [1]; PRE DRUG, Tpo 10.0 ng/ml group): 134 ± 13 mmHg
Coronary flow rate (in vitro rat hearts [1]; [8]): 3 ± 1 mL/min/g
Heart rate (in vitro rat hearts [1]; [8]): 184 ± 31 beats/min
Left ventricle developed pressure (in vitro rat hearts [1]; [8]): 52 ± 9 mmHg
Coronary flow rate (in vitro rat hearts [1]; [9]): 3 ± 1 mL/min/g
Heart rate (in vitro rat hearts [1]; [9]): 197 ± 36 beats/min
Left ventricle developed pressure (in vitro rat hearts [1]; [9]): 64 ± 11 mmHg
Coronary flow rate (in vitro rat hearts [1]; [10]): 4 ± 1 mL/min/g
Heart rate (in vitro rat hearts [1]; [10]): 204 ± 41 beats/min
Left ventricle developed pressure (in vitro rat hearts [1]; [10]): 62 ± 8 mmHg
Coronary flow rate (in vitro rat hearts [1]; [11]): 4 ± 1 mL/min/g
Heart rate (in vitro rat hearts [1]; [11]): 183 ± 16 beats/min
Left ventricle developed pressure (in vitro rat hearts [1]; [11]): 64 ± 10 mmHg
Recovery of coronary flow rate (in vitro rat hearts [1]; Tpo 1.0 ng/ml): unaffected
Recovery of heart rate (in vitro rat hearts [1]; Tpo 1.0 ng/ml, untreated hearts 94±6%): 85±7 % of pre-ischemic values
Optimal concentration of Tpo that afforded maximum reduction of infarct size (in vitro rat hearts [1]; [12]): 1.0 ng/mL
Optimal concentration that afforded maximal recovery of post-ischemic ventricular developed pressure (in vitro rat hearts [1]; [12]): 1.0 ng/mL
Recovery of left ventricular developed pressure following ischemia and reperfusion (in vitro rat hearts [1]; bell-shaped concentration-dependent, Tpo 0.01-10.0 ng/ml): increased
TUNEL-positive cells (in vitro rat hearts [2]; Tpo 1.0 ng/ml 15 min before 25 min global ischemia, 3 hours reperfusion, ischemia control 3.56±0.75%, non-ischemic 1.91±0.54%): 1.94±0.55%
Apoptosis following ischemia and reperfusion (in vitro rat hearts [2]; Tpo 1.0 ng/ml prior to ischemia): reduced
Hematocrit (rats; [13]): remained unchanged; also recorded: did not result in an increased
Platelet count (rats; [13]): remained unchanged; also recorded: did not result in an increased
Hematocrit (rats; [14]): no effect
Platelet count (rats; [14]): no effect
Increase of platelet production [3]: 5-10 times
